Reference: patent US8629169B2, “4-substituted-3-phenylsulfanylmethyl-bicyclo[3.1.0]hexane compounds as mGluR 2/3 antagonists” (Eli Lilly and Company, priority 2010, dated 2014)
One block for each compound: values may come before it.

Tests used:
male NIH-Swiss mice = test: Forced-swim test in mice (mFST); format: in vivo, mouse; conditions: for ED60 (mg/kg): immobility, last 4 min of 6 min; for Maximal Decrease (1 − compound/control) * 100%: immobilization time
mice = test: mFST alone and in combination with SSRI; format: in vivo, mouse; conditions: Example 12 10 mg/kg p.o.
male Wistar rats = test: Wakefulness and behavioral monitoring in rats (EEG/EMG/LMA); format: in vivo; conditions: rat; for Locomotor Activity Intensity, mean difference from vehicle controls: averaged over the first 7 hr post-treatment; for Cumulative Time Awake 8-19 hours, mean difference from vehicle controls: rebound hypersomnolence measure
Experimental: Representative compounds of the present invention are tested in rats for their ability to increase the amount of time in a state of wakefulness without undesired effects such as inhibition of REM sleep, waking motor impairment (disproportionate hyper- or hypolocomotion), and/or rebound hypersomnia Test animals are continuously monitored by electro-encephalograms (EEG), electromyograms (EMG), and motion to measure cumulative time awake, rebound hypersomnia, and locomotor activity intensity during wakefulness. Methods for such studies are known in the art (see for example methods described in Edgar D M, Seidel W F. Modafinil induces wakefulness without intensifying motor activity or subsequent rebound hypersomnolence in the rat. J Pharmacology & Experimental Therapeutics 1997; 283: 757-769; van Gelder R N, Edgar D M, Dement W C. Real-time automated sleep scoring: validation of a microcomputer-based system for mice. Sleep 1991, 14: 48-55; and Gross B A, Walsh C M, Turakhia A A, Booth V, Mashour G A, Poe G R. Open-source logic-based automated sleep scoring software using electrophysiological recordings in rats. J Neurosci Methods. 2009; 184(1):10-8.) Studies are conducted as follows:
Adult, male Wistar rats (approximately 270-300 g at time of surgery) are surgically fitted for chronic recording of EEG, EMG, body temperature, and motion as follows: Rats are surgically prepared with a cranial implant consisting of four stainless steel screws for EEG recording (two frontal [3.9 mm anterior from bregma, and ±2.0 mm mediolaterally] and two occipital [6.4 mm posterior from bregma, ±5.5 mm mediolaterally]), and with two Teflon-coated stainless steel wires for EMG recording (positioned under the nuchal trapezoid muscles). All leads are soldered to a miniature connector (Microtech, Boothwyn, Pa.) prior to surgery. The implant assembly is affixed to the skull by the combination of the stainless steel EEG recording screws, cyanoacrylate applied between the implant connector and skull, and dental acrylic. Body temperature and locomotor activity is monitored via a miniature transmitter (Minimitter PDT4000G, Philips Respironics, Bend, Oreg.) surgically placed into the abdomen. At least 3 weeks are allowed for recovery.
Each rat is housed individually within a microisolator cage modified with an inserted polycarbonate filter-top riser to allow more vertical headroom. A flexible cable that minimally restricts movement is connected at one end to a commutator affixed to the cage top and at the other end to the animal's cranial implant. Each cage is located within separate, ventilated compartments of a stainless steel sleep-wake recording chamber. Food and water are available ad libitum and the ambient temperature is maintained at about 23±1° C. A 24-hr light-dark cycle (LD 12:12) using fluorescent light is maintained throughout the study. Relative humidity averages approximately 50%. Animals are undisturbed for at least 30 hrs before and after each treatment.
The vehicle or one of the compound dose levels is administered pseudo-randomly such that no rat receives the same treatment twice, and no rat receives more than two of the 8 treatments in any one study. Each rat is removed from its cage for about a minute to be weighed and treated. At least 6 days “washout” period precede and follow each treatment.
Sleep and wakefulness discrimination may be automated (e.g., Van Gelder et al. 1991; Edgar et al. 1997, Winrow et al., 2010; Gross et al., 2009).

[1] = tested on: mGlu2+/+ and mGlu2−/− mice; test: mFST in mGlu2 knock-out mice and +/+ littermates
Experimental: Briefly, male NIH-Swiss mice (Harlan Sprague-Dawley, Indianapolis, Ind.) weighing between 25-30 g are used. Group housed animals are removed from the vivarium to the testing area in their own cages and allowed to adapt to the new environment for at least 1 hour before testing. […] Mice are placed in a cylinder (diameter: 10 cm; height: 25 cm) filled with 6 cm of water (22-25° C.) for 6 min. The duration of immobility during the last 4 min. of the 6 min. period of the test was scored. A mouse is recorded as immobile when floating motionless or making only those movements necessary to keep its head above water.
In other experiments, mice with receptor deletions (mGlu2 knock-out mice) are studied; these mice are bred by heterozygote×heterozygote breeding and used as littermates for −/− and +/+ mouse comparisons (Taconic Farms).

[2] = Brain and plasma exposure levels in the SSRI combination study; conditions: combination with fluoxetine or citalopram versus alone
human mGlu2 receptor = molecular target: T1, human mGlu2 receptor (Homo sapiens, UniProt Q14416); test: mGlu2 receptor cAMP antagonist assay; format: cell-based; conditions: reversal of DCG IV (EC90) inhibition of forskolin-stimulated cAMP; relative IC50
T1 construct: expressed in transfected cells; host or cells: AV12 cells co-expressing rat EAAT1
Experimental: (§1) Antagonist activity is assayed in recombinant AV12 cells stably expressing human mGlu2 or mGlu3 receptors and the rat glutamate transporter EAAT1 (Excitatory Amino Acid Transporter 1). The cell lines are maintained by culturing in DMEM with high glucose and pyridoxine hydrochloride supplemented with 5% dialyzed fetal bovine serum (FBS), 1 mM sodium pyruvate, 1 mM HEPES and 1 mM L-glutamine; geneticin and hygromycin B are used as selection antibiotics.
(§2) Reversal of the inhibition of forskolin-stimulated cAMP production by test compounds is measured using homogeneous time resolved fluorescence technology (HTRF; Cisbio cat #62AM4PEB). The medium is removed and the cells are incubated with 100 μl cAMP stimulation buffer (STIM) for 30 minutes at 37° C. […] Cells are incubated at 37° C. for 20 minutes. To measure the cAMP levels, cAMP-d2 conjugate and anti cAMP-cryptate conjugate in lysis buffer are incubated with the treated cells at room temperature for 1 hour (mGlu2) or 1.5 hour (mGlu3). […] The raw data are converted to cAMP amount (pmole/well) using a cAMP standard curve generated for each experiment. Relative IC50 values are calculated from the top-bottom range of the concentration response curve using a four-parameter logistic curve fitting program (ActivityBase v5.3.1.22).

human mGlu3 receptor = molecular target: T2, human mGlu3 receptor (Homo sapiens, UniProt Q14832); test: mGlu3 receptor cAMP antagonist assay; format: cell-based; conditions: reversal of DCG IV (EC90) inhibition of forskolin-stimulated cAMP; relative IC50
T2 construct: expressed in transfected cells; host or cells: AV12 cells co-expressing rat EAAT1
Experimental: as §1, §2

human mGlu1 receptor = molecular target: T3, human mGlu1 receptor (Homo sapiens, UniProt Q13255); test: FLIPR calcium antagonist assay for mGlu receptor selectivity, mGlu1; format: cell-based; conditions: inhibition of EC90 glutamate response, read-out: mGlu1 % inhib. @12.5 μM
T3 construct: expressed in transfected cells; host or cells: AV12 cells co-expressing rat EAAT1
Description: (§3) The relative antagonist potencies of the compounds of the invention for the other human mGlu receptors can be assessed with either a cAMP assay or fluorometric calcium response assay (see for example Fell et al., JPET (in press)). Briefly, individual AV12 cell lines containing the rat EAAT1 glutamate transporter and stably expressing the human mGlu1, 2, 3, 4, 5, 6, & 8 receptors are used for these studies. The mGlu1 and 5 receptors are Gq-coupled, so they naturally signal through phospholipase C, producing a calcium flux response which can be used to measure receptor activation using a Fluorometric Imaging Plate Reader (FLIPR, Molecular Devices). […]
(§4) Intracellular calcium levels are monitored using FLIPR before and after the addition of test compounds and Fluo-3 AM (Invitrogen) or Calcium 4 (Molecular Devices) dye, depending on the cell line. […] The results are analyzed using GraphPad Prism v4.03 to calculate the concentrations of glutamate needed to induce the EC90 (antagonist assay) and EC10 (potentiator assay) responses.
(§5) Compounds are tested at each mGlu receptor in a two-addition FLIPR assay using a 10-point concentration response profile starting at a final concentration of 25 μM for the agonist assay and 12.5 μM for the potentiator and antagonist assays. […] Agonist effects are quantified as percent stimulation induced by compound alone relative to the maximal glutamate response. […]

human mGlu4 receptor = molecular target: T4, human mGlu4 receptor (Homo sapiens, UniProt Q14833); test: FLIPR calcium antagonist assay for mGlu receptor selectivity, mGlu4; format: cell-based; conditions: inhibition of EC90 glutamate response, read-out: mGlu4 % inhib. @12.5 μM
T4 construct: expressed in transfected cells; host or cells: AV12 cells co-expressing rat EAAT1 and Galpha15
Description: as §3, §4, §5

human mGlu5 receptor = molecular target: T5, human mGlu5 receptor (Homo sapiens, UniProt P41594); test: FLIPR calcium antagonist assay for mGlu receptor selectivity, mGlu5; format: cell-based; conditions: inhibition of EC90 glutamate response, read-out: mGlu5 % inhib. @12.5 μM
T5 construct: expressed in transfected cells; host or cells: AV12 cells co-expressing rat EAAT1
Description: as §3, §4, §5

human mGlu6 receptor = molecular target: T6, human mGlu6 receptor (Homo sapiens, UniProt O15303); test: mGlu6 cAMP antagonist assay (reference agonist L-AP4); format: cell-based; conditions: cAMP format
T6 construct: expressed in transfected cells; host or cells: AV12 cells co-expressing rat EAAT1
Description: as §3, with “Devices). The cell lines expressing the mGlu2, 3, 4, and 8 receptor are designed to express the Gα15 subunit so that these Gi-coupled receptors will generate a calcium flux response similar to the mGlu1 and 5 receptor expressing cell lines. The mGlu6 receptor is tested in a cAMP format using methods analogous to those developed for mGlu2 and mGlu3 above.” for “Devices).”
Antagonist activity in mGlu6 cells is measured using cAMP in a method analogous to that described above for mGlu2 and mGlu3 activity, except that the reference agonist was L-AP4 (Tocris). […] Relative IC50 and EC50 values are calculated from the top-bottom range of the concentration response curve using a four-parameter logistic curve fitting program (ActivityBase v5.3.1.22).

human mGlu8 receptor = molecular target: T7, human mGlu8 receptor (Homo sapiens, UniProt O00222); test: FLIPR calcium antagonist assay for mGlu receptor selectivity, mGlu8; format: cell-based
T7 construct: expressed in transfected cells; host or cells: AV12 cells co-expressing rat EAAT1 and Galpha15
Description: The relative antagonist potencies of the compounds of the invention for the other human mGlu receptors can be assessed with either a cAMP assay or fluorometric calcium response assay (see for example Fell et al., JPET (in press)). Briefly, individual AV12 cell lines containing the rat EAAT1 glutamate transporter and stably expressing the human mGlu1, 2, 3, 4, 5, 6, & 8 receptors are used for these studies. The mGlu1 and 5 receptors are Gq-coupled, so they naturally signal through phospholipase C, producing a calcium flux response which can be used to measure receptor activation using a Fluorometric Imaging Plate Reader (FLIPR, Molecular Devices). The cell lines expressing the mGlu2, 3, 4, and 8 receptor are designed to express the Gα15 subunit so that these Gi-coupled receptors will generate a calcium flux response similar to the mGlu1 and 5 receptor expressing cell lines. The mGlu6 receptor is tested in a cAMP format using methods analogous to those developed for mGlu2 and mGlu3 above. These cell lines are maintained as previously described except that amounts of L-glutamine and selection agents (geneticin, hygromycin B, zeocin, and blasticidin) may vary depending on the cell line. Confluent cultures are passaged biweekly.
Intracellular calcium levels are monitored using FLIPR before and after the addition of test compounds and Fluo-3 AM (Invitrogen) or Calcium 4 (Molecular Devices) dye, depending on the cell line. Cells are plated 24 hours prior to assay in a variable concentration of glutamine and a variable density of cells per well, depending on the cell line. The medium is removed and the cells are incubated with 8 μM of dye (50 μl per well) for 90 or 120 minutes (depending on cell line) at 25° C. […] The results are analyzed using GraphPad Prism v4.03 to calculate the concentrations of glutamate needed to induce the EC90 (antagonist assay) and EC10 (potentiator assay) responses.
Compounds are tested at each mGlu receptor in a two-addition FLIPR assay using a 10-point concentration response profile starting at a final concentration of 25 μM for the agonist assay and 12.5 μM for the potentiator and antagonist assays. […] Agonist effects are quantified as percent stimulation induced by compound alone relative to the maximal glutamate response. Antagonist effects are quantified by calculating the percent inhibition of the EC90 glutamate response caused by the compound. Potentiation effects are quantified as percent increase in the presence of an EC10 response in glutamate relative to the ECmax response. All data are calculated as relative IC50 or EC50 values using a four-parameter logistic curve fitting program (ActivityBase v5.3.1.22).

[3] = citalopram experiment, citalopram 1 mg/kg i.p.
[4] = fluoxetine experiment, fluoxetine 10 mg/kg i.p.

T7 sequence (O00222 34-908): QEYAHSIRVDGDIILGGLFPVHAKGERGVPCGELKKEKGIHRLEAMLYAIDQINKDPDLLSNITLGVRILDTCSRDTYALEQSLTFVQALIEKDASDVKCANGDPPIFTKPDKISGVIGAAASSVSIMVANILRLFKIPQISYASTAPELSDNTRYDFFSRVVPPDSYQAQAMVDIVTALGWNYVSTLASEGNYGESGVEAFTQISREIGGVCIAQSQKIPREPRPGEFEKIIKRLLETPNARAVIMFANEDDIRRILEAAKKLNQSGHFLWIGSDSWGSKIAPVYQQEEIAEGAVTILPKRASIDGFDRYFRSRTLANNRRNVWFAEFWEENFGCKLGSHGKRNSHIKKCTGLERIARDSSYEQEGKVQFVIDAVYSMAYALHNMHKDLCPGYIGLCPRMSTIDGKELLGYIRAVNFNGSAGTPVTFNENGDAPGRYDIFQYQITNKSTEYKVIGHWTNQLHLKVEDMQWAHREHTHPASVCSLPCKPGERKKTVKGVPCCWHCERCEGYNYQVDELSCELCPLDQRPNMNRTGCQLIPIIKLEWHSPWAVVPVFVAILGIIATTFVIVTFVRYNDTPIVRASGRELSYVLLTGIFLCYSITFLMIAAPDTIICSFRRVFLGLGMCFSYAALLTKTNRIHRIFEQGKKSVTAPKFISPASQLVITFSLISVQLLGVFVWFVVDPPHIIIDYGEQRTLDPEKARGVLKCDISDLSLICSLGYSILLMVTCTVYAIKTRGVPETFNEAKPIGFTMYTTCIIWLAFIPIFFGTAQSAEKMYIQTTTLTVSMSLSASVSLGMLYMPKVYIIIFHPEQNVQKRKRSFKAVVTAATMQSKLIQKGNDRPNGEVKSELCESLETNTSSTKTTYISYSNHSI
T4 sequence (Q14833 33-912): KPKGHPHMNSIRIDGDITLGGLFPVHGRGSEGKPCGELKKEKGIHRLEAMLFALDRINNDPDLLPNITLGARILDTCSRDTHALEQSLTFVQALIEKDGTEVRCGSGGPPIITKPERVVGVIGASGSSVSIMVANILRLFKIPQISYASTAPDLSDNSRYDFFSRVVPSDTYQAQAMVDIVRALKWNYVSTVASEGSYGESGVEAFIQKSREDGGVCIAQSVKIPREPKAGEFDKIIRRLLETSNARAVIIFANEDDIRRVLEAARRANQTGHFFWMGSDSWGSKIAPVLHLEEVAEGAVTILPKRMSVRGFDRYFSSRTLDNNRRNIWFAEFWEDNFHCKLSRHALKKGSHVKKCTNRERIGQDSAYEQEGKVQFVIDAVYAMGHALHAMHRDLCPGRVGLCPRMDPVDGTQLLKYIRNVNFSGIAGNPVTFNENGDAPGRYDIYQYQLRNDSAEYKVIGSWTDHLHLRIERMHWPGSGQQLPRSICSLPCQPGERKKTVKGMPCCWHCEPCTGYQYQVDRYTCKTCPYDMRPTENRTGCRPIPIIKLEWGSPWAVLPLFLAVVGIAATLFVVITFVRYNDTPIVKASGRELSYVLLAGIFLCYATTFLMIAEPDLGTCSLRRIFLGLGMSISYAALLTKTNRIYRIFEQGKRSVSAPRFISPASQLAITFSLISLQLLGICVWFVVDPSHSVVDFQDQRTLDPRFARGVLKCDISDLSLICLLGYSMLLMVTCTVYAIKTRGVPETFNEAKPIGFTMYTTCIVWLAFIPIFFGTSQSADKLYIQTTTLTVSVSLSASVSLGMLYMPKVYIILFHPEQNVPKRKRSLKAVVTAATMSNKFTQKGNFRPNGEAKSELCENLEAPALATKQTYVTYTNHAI
T2 sequence (Q14832 23-879): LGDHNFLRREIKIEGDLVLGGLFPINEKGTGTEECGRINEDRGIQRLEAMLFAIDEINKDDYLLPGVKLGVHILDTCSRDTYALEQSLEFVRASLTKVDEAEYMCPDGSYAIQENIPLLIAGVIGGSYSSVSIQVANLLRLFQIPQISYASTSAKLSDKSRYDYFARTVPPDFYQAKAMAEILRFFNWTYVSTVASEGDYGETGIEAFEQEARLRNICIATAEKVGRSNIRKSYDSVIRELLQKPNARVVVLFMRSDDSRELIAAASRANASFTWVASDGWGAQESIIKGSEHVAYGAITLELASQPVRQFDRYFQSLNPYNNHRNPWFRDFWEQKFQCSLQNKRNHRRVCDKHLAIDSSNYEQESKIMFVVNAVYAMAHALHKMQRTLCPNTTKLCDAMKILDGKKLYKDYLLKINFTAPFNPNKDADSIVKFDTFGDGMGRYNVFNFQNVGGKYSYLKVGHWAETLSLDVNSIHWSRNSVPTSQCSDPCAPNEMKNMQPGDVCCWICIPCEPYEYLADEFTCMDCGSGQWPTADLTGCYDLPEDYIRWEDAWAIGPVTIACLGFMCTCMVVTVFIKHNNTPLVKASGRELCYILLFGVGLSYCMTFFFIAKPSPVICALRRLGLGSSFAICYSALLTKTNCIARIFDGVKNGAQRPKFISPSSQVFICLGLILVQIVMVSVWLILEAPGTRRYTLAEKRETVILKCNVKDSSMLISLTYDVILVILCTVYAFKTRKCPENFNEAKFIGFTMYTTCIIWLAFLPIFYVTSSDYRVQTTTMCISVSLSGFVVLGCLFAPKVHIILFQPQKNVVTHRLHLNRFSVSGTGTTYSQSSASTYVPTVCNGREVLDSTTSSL
T6 sequence (O15303 25-877): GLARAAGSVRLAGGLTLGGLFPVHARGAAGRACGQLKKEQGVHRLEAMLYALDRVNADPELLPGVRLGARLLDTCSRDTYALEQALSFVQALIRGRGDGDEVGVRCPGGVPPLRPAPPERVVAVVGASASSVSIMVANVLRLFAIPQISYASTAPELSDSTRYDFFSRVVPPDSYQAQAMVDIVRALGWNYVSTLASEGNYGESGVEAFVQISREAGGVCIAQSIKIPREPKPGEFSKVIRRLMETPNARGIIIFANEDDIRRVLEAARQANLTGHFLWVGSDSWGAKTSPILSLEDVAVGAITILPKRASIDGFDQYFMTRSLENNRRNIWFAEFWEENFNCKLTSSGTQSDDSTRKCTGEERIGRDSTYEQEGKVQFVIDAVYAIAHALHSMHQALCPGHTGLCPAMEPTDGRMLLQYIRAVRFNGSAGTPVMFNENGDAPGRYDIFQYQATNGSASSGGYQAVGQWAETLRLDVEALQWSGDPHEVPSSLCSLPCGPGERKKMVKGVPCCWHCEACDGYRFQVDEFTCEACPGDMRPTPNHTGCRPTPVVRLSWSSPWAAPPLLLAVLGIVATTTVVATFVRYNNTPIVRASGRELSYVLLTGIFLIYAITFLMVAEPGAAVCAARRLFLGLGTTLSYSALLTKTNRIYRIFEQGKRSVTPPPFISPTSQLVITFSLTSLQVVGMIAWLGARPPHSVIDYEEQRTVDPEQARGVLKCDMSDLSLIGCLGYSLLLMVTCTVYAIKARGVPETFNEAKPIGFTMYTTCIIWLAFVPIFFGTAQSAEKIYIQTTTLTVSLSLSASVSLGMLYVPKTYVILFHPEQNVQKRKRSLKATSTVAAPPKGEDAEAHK
T1 sequence (Q14416 19-872): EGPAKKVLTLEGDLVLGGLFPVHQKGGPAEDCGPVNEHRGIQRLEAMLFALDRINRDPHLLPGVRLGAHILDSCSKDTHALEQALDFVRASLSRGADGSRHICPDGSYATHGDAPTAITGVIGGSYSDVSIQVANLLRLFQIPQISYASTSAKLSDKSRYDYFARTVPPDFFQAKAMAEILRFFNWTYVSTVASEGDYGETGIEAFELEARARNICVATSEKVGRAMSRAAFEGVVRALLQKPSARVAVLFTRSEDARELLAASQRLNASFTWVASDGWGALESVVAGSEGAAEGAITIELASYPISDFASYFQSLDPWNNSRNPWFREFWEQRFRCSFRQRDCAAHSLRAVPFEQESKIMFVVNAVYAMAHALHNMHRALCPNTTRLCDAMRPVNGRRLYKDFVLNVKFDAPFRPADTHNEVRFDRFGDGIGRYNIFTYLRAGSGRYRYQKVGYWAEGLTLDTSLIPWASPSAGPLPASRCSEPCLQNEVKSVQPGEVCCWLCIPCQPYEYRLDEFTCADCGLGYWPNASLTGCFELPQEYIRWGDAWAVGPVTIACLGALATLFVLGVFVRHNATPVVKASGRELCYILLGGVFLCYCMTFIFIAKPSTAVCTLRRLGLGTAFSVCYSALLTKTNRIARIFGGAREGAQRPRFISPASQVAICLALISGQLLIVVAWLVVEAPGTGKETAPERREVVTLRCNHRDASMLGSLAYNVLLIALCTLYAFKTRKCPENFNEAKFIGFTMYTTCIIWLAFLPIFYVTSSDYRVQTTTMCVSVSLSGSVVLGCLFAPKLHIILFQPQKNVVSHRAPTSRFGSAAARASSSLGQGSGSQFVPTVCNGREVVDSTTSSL

SMILES: CC(C)OC(=O)OCOC(=O)[C@H]1[C@@H]2[C@H](O)[C@@H](CSc3ccc(F)c(F)c3)[C@@](N)(C(=O)OCOC(=O)OC(C)C)[C@H]12.Cl [Example 12, Bis({[(1-methylethoxy)carbonyl]oxy}methyl)(1S,2R,3S,4S,5R,6R)-2-amino-3-{[(3,4-difluorophenyl)sulfanyl]methyl}-4-hydroxybicyclo[3.1.0]hexane-2,6-dicarboxylate hydrochloride]
ED60 (mg/kg) (male NIH-Swiss mice; p.o.): 12.0 (p.o.) mg/kg | Maximal Decrease (1 − compound/control) * 100% (male NIH-Swiss mice; p.o.): 58.4% | Immobilization Time (mice; [3]): 140 s | Maximal Decrease (1 − compound/control) * 100% (mice; [3]): 20.9% | Immobilization Time (mice; [4]): 130 s | Maximal Decrease (1 − compound/control) * 100% (mice; [4]): 24.5% | Cumulative Time Awake first 7 hours, mean difference from vehicle controls (male Wistar rats; 10 mg/kg PO): 40.2 min | Locomotor Activity Intensity, mean difference from vehicle controls (male Wistar rats; 10 mg/kg PO): 4.5 counts of LMA per minute of EEG-defined wakefulness | Cumulative Time Awake 8-19 hours, mean difference from vehicle controls (male Wistar rats; 10 mg/kg PO): 12.1 min | Cumulative Time Awake first 7 hours, mean difference from vehicle controls (male Wistar rats; 30 mg/kg PO): 109.3 min | Locomotor Activity Intensity, mean difference from vehicle controls (male Wistar rats; 30 mg/kg PO): 3.0 counts of LMA per minute of EEG-defined wakefulness | Cumulative Time Awake 8-19 hours, mean difference from vehicle controls (male Wistar rats; 30 mg/kg PO): -4.1 min | Cumulative Time Awake first 7 hours, mean difference from vehicle controls (male Wistar rats; 60 mg/kg PO): 118.9 min | Locomotor Activity Intensity, mean difference from vehicle controls (male Wistar rats; 60 mg/kg PO): 4.9 counts of LMA per minute of EEG-defined wakefulness | Cumulative Time Awake 8-19 hours, mean difference from vehicle controls (male Wistar rats; 60 mg/kg PO): 2.7 min | immobility time in mGlu2+/+ mice ([1]; 30 mg/kg, po, 120 min prior): decrease immobility time | brain and plasma levels of the active di-acid moiety [2]: no increase in exposure levels

IC50 (human mGlu2 receptor): 12.7 ± 2.3 nM | IC50 (human mGlu3 receptor): 13.4 ± 3.4 nM | inhibition at 12.5 µM (human mGlu1 receptor): 7.9% | inhibition at 12.5 µM (human mGlu4 receptor): 28% | inhibition at 12.5 µM (human mGlu5 receptor): 21.4% | IC50 (human mGlu6 receptor): 1390 nM | inhibition at 12.5 µM (human mGlu8 receptor; 12.5 μM, inhibition of EC90 glutamate response, read-out: mGlu8 % inhib. @12.5 μM): 68.7% | IC50 (human mGlu8 receptor; FLIPR antagonist, in brackets under % inhib.): 7860 nM
SMILES: Cl.N[C@]1(C(=O)O)[C@@H]2[C@@H](C(=O)O)[C@@H]2[C@H](O)[C@H]1CSc1ccc(F)c(Cl)c1 [Example 2, (1S,2R,3S,4S,5R,6R)-2-Amino-3-{[(3-chloro-4-fluorophenyl)sulfanyl]methyl}-4-hydroxybicyclo[3.1.0]hexane-2,6-dicarboxylic acid hydrochloride]
ED60 (mg/kg) (male NIH-Swiss mice; i.p.): 24.5 (i.p.) mg/kg | Maximal Decrease (1 − compound/control) * 100% (male NIH-Swiss mice; i.p.): 33.5% | immobility time in mGlu2+/+ mice ([1]; 10 mg/kg, i.p., 30 min prior): significantly decrease immobility time
